Reference: patent publication US11746116B2, “Antibiotic resistance breakers” (KING'S COLLEGE LONDON, priority 2017, dated 2023)
Converted amounts (≈) assume the structure as drawn.

Experiments:
[1] = tested on: Ab17978; assay: MIC, microdilution broth method; type: cell-based; conditions: Ab17978; Normal (no PMBN); in µg/mL
[2] = tested on: PA01; assay: MIC, microdilution broth method; type: cell-based, Pseudomonas aeruginosa; conditions: PA01; Normal (no PMBN); in µg/mL
[3] = tested on: MSSA9144; assay: MIC, microdilution broth method; type: cell-based, Staphylococcus aureus; conditions: MSSA9144; in µg/mL
[4] = tested on: VSE775; assay: MIC, microdilution broth method; type: cell-based, Enterococcus faecalis; conditions: VSE775; in µg/mL
[5] = tested on: VRE12204; assay: MIC, microdilution broth method; type: cell-based, Enterococcus faecium; conditions: VRE12204; in µg/mL
[6] = tested on: SA2; assay: MIC, extended Gram-positive panel; type: cell-based, S. aureus; conditions: S. aureus SA2
[7] = tested on: UKA7; assay: MIC, A. baumannii extended panel; type: cell-based
[8] = tested on: UKA10; assay: MIC, A. baumannii extended panel; type: cell-based
[9] = tested on: UKA12; assay: MIC, A. baumannii extended panel; type: cell-based
[10] = tested on: 13423; assay: MIC, A. baumannii extended panel; type: cell-based; conditions: A. baumannii 13423
[11] = tested on: UKA13; assay: MIC, A. baumannii extended panel; type: cell-based
[12] = tested on: 12156; assay: MIC, A. baumannii extended panel; type: cell-based; conditions: A. baumannii 12156

`O=C(O)c1cn(C2CC2)c2cc(N3CCNCC3)c(F)cc2c1=O` [Ciprofloxacin, ciprofloxacin, reference compound] gave an MIC [1] of 0.25, an MIC [2] of 0.25 and an MIC [3] of 0.25. For the same compound, the MIC [4] was 1, the MIC [5] was 1 and the MIC [6] was 1 µg/mL (≈ 3.02 µM). The MIC [7] was over 512 µg/mL, the MIC [8] was 256 µg/mL (≈ 773 µM) and the MIC [9] was 512 µg/mL (≈ 1550 µM). It also gave an MIC [10] of 256 µg/mL (≈ 773 µM), an MIC [11] of 512 µg/mL (≈ 1550 µM) and an MIC [12] of 1 µg/mL (≈ 3.02 µM).
